Data: ChEMBL document CHEMBL1124750, “Diels-Alder adducts of vinyl porphyrins: synthesis and in vivo photodynamic effect against a rat bladder tumor” (1990)

Experiments:
Rattus norvegicus [1] = species: Rattus norvegicus; experiment: Dose required in phototherapy for twelve days and free of palpable tumor in 100% of male Fischer CDF (F-344)/CrlBr rats
Rattus norvegicus [2] = species: Rattus norvegicus; experiment: Dose required in phototherapy for twelve days and palpable tumor detected in 50% of male Fischer CDF (F-344)/CrlBr rats; type: functional
Rattus norvegicus [3] = species: Rattus norvegicus; experiment: Dose required in phototherapy for twelve days and 73% control in tumor size in male Fischer CDF (F-344)/CrlBr rats; type: functional
Rattus norvegicus [4] = species: Rattus norvegicus; experiment: Dose required in phototherapy for twelve days in tumor size detected in male Fischer CDF (F-344)/CrlBr rats; type: functional
Rattus norvegicus [5] = species: Rattus norvegicus; experiment: Compound evaluated for cytotoxicity in male Fischer CDF (F-344)/CrlBr rats; type: functional

CCC1=C(C)c2cc3[nH]c(cc4nc(cc5[nH]c(cc1n2)C1(C)C5=CCC(C(=O)OC)=C1C(=O)OC)C(C)=C4CC)c(C)c3CC (stereo unspecified)
Dose (Rattus norvegicus [1]): 1 mg/kg

CCC1=C(CC)c2cc3[nH]c(cc4nc(cc5[nH]c(cc1n2)C1=CCC(C(=O)OC)=C(C(=O)OC)C15CC)C(CC)=C4CC)c(CC)c3CC (stereo unspecified)
Dose (Rattus norvegicus [2]): 1 mg/kg

C=Cc1c(C)c2cc3nc(cc4nc(cc5[nH]c(cc1[nH]2)C1(C)C5=CCC(C#N)(C#N)C1(C#N)C#N)C(C)=C4CCC(=O)OC)C(CCC(=O)OC)=C3C (stereo unspecified)
Dose (Rattus norvegicus [3]): 1 mg/kg

C=Cc1c(C)c2cc3nc(cc4nc(cc5[nH]c(cc1[nH]2)C1(C)C5=CCC(C(=O)OC)=C1C(=O)OC)C(C)=C4CCC(=O)OC)C(CCC(=O)OC)=C3C (stereo unspecified)
Dose (Rattus norvegicus [4]): 5 mg/kg

CCC1=C(CC)c2cc3[nH]c(cc4nc(cc5[nH]c(cc1n2)C1=CCC(C#N)(C#N)C(C#N)(C#N)C15CC)C(CC)=C4CC)c(CC)c3CC (stereo unspecified)
Dose (Rattus norvegicus [5]): 1 mg/kg

CCC1=C(C)c2cc3[nH]c(cc4[nH]c(cc5nc(cc1n2)C(C)=C5CC)C1(C)C4=CCC(C#N)(C#N)C1(C#N)C#N)c(C)c3CC (stereo unspecified)
Dose (Rattus norvegicus [5]): 1 mg/kg
